From patent US8034382B2, “Preparation method for biodegradable micro-particles containing drugs” (The Board of Trustees of the University of Arkansas, priority 2008, dated 2011) come the findings set out here.

Data set [1] can be described thus: Encapsulation efficiency of drug in PLA/PLGA microparticles prepared with hydroxyapatite gel (UV absorption). The data set is classed as physicochemical. To be noted: for pH of aqueous suspension giving best encapsulation efficiency: hydroxyapatite gel suspension, PLA/PLGA polymers. The method, then:
Leuprolide acetate and poly(lactic acid-co-glycolic acid) (PLGA) RG502H or PLA R202H were dissolved in a 24/76 (v/v) methanol/dichloromethane mixture at a concentration of 20% polymer and 10% leuprolide (w/v) to prepare the polymer-drug solution. An aqueous suspension of hyroxyapatite was prepared by dissolving 6 g of CaO in 400 ml water. Then phosphoric acid was added to adjust the pH of the aqueous suspension to between 9.0 and 10.0. Hydroxyapatite gel was formed in situ in the aqueous suspension under these conditions by the reaction 10 CaO+6 H3PO4=Ca10(PO4)6(OH)2+8 H2O. The drug/polymer solution (2 or 3 ml) was dispersed into the aqueous suspension medium. The dispersion was initially homogenized by a high-shear mixer at 5,000 or more rpm for 5 minutes. The solvents were then evaporated by stirring at 600 rpm for 1 hour or longer. Then concentrated HCl was added slowly until the hydroxyapatite dissolved and the suspension cleared. Hydroxyapatite is dissolved by the reaction Ca10(PO4)6(OH)2+20 HCl=10 CaCl2+6 H3PO4+2 H2O. The solidified microparticles were recovered by centrifugation and filtration.
Encapsulation efficiency refers to the mass of drug recovered in microparticles divided by the starting mass of drug in the polymer-drug phase. To quantify drug in microparticles, the microparticles were first dissolved in an ethanol/dichloroethane (28/72 v/v) mixture. The drug content of the solution was then measured by ultraviolet absorption.
In other experiments, the pH of the suspending medium was varied. […] Small anionic and cationic small molecule drugs were also tested. […] Verapamil HCl and nicardipine HCl were the small-molecule amine-containing drugs tested. Piroxicam, […], and salicylic acid were the small molecule anionic drugs tested.

Data set [2] can be described thus: Release kinetics of leuprolide acetate from PLGA microparticles (UV absorption of supernatant). The data set is classed as physicochemical. The method, then:
The release kinetics of leuprolide acetate from the PLGA microparticles prepared as described herein was determined and the results are shown in FIG. 1. Concentration of drug in the supernatant was measured by ultraviolet absorption. […] Initial burst release occurs due to the fast dissolution of peptide located at the microparticle surface followed by a time lag of 4-5 days. […] During the middle portion of the curve, peptide release occurs at a near constant rate.
FIG. 2 compares the release curve of FIG. 1 for 10% RG 502H with a published release curve for leuprolide acetate from microparticles formed by conventional oil-in-water emulsion with poly(vinyl alcohol) as emulsifier (D'Souza et al., 2005, AAPS PHARM. Sci. Tech. 6(4), E553).

In turn, `CCNC(=O)[C@@H]1CCCN1C(=O)[C@H](CCCNC(=N)N)NC(=O)[C@H](CC(C)C)NC(=O)[C@@H](CC(C)C)NC(=O)[C@H](Cc1ccc(O)cc1)NC(=O)[C@H](CO)NC(=O)[C@H](Cc1c[nH]c2ccccc12)NC(=O)[C@H](Cc1c[nH]cn1)NC(=O)[C@@H]1CCC(=O)N1` [leuprolide acetate, Leuprolide acetate] registered an Encapsulation efficiency in data set [1] (pH of the suspending medium 7.0) of 90%. Further, in data set [1] (pH of the suspending medium pH 9.0 to pH 10.0, hydroxyapatite gel), the Encapsulation efficiency is on record as at least 95%. The “Release curve compared with published curve for conventional o/w emulsion (poly(vinyl alcohol)) microparticles” value in data set [2] (10% RG 502H, FIG. 2, versus D'Souza et al. 2005) was “nearly identical”. Besides, in data set [2] (PLGA microparticles, FIG. 1), the “Release profile (shape)” value is on record as “typical tri-phase” and the “Time lag after initial burst release” value is 4 to 5 days.

On to `COc1ccc2cc([C@H](C)C(=O)O)ccc2c1` [naproxen acid], for which, in data set [1], the “pH of aqueous suspension giving best encapsulation efficiency” value (“pH” for short) is recorded as around 5.0.

As to `CN1C(C(=O)Nc2ccccn2)=C(O)c2ccccc2S1(=O)=O` [piroxicam], the “pH” value in data set [1] is listed as around 5.0.

`O=C(O)c1ccccc1O` [salicylic acid]: the “pH” value in data set [1] is given as around 5.0.
